Experimental data taken from patent publication US10392383B2, “3-(1H-benzo[d]imidazol-2-yl)-1H-pyrazolo[4,3-b]pyridines and therapeutic uses thereof” (Samumed, LLC, priority 2015, dated 2019).

What was measured:
[1] = system: primary human fibroblasts derived from IPF patients (LL29 cells) treated with TGF-β1; assay: Inhibition of the fibrotic process: αSMA staining in TGF-β1-treated LL29 fibroblasts; type: cell-based; conditions: Fibroblast; for EC50: 96 h, LL29 fibroblasts treated with TGF-β1 (20 ng/mL), 4 days, Table 4; for inhibition at 10 µM: LL29 fibroblasts treated with TGF-β1, Table 4, read-out: percent inhibition at 10 μM (given in parentheses for EC50 >10 μM)
Source text: Representative compounds were screened using primary human fibroblasts (derived from IPF patients) treated with TGF-β1 to determine their ability to inhibit the fibrotic process.
Human Fibroblast Cell Culture: Primary human fibroblasts derived from IPF patients (LL29 cells) [^1Xiaoqiu Liu, et. al., “Fibrotic Lung Fibroblasts Show Blunted Inhibition by cAMP Due to Deficient cAMP Response Element-Binding Protein Phosphorylation”, Journal of Pharmacology and Experimental Therapeutics (2005), 315(2), 678-687; ^2Watts, K. L., et. al., “RhoA signaling modulates cyclin D1 expression in human lung fibroblasts; implications for idiopathic pulmonary fibrosis”, Respiratory Research (2006), 7(1), 88] were obtained from American Type Culture Collection (ATCC) and expanded in F12 medium supplemented with 15% Fetal Bovine Serum and Penicillin/Streptomycin.
Compound Screening: Each compound was dissolved in DMSO as a 10 mM stock and used to prepare compound source plates. Serial dilution (1:2, 11-point dose-response curves from 10 μM to […]) and compound transfer was performed using the ECHO 550 (Labcyte, Sunnyvale, Calif.) into 384-well clear bottom assay plates (Greiner Bio-One) with appropriate DMSO backfill for a final DMSO concentration of 0.1%. LL29 cells are plated at 1,500 cells/well in 80 μL/well F12 medium supplemented with 1% Fetal Bovine Serum. One hour after addition of the cells, TGF-β1 (Peprotech; 20 ng/mL) was added to the plates to induce fibrosis (ref. 1 and 2 above). Wells treated with TGF-β1 and containing DMSO were used as controls. Cells were incubated at 37° C. and 5% CO2 for 4 days. Following incubation for 4 days, SYTOX green nucleic acid stain (Life Technologies [Thermo Fisher Scientific]) was added to the wells at a final concentration of 1 μM and incubated at room temperature for 30 min. Cells were then fixed using 4% formaldehyde (Electron Microscopy Sciences), washed 3 times with PBS followed by blocking and permeabilization using 3% Bovine Serum Albumin (BSA; Sigma) and 0.3% Triton X-100 (Sigma) in PBS. Cells were then stained with antibody specific to α-smooth muscle actin (αSMA; Abcam) (ref. 1 and 2 above) in 3% Bovine Serum Albumin (BSA; Sigma) and 0.3% Triton X-100 (Sigma) in PBS, and incubated overnight at 4° C. Cells were then washed 3 times with PBS, followed by incubation with Alexa Flor-647 conjugated secondary antibody (Life Technologies [Thermo Fisher Scientific]) and DAPI at room temperature for 1 hour. Cells were then washed 3 times with PBS and plates were sealed for imaging. αSMA staining was imaged by excitation at 630 nm and emission at 665 nm and quantified using the Compartmental Analysis program on the CellInsight CX5 (Thermo Scientific). Dead or apoptotic cells were excluded from analysis based on positive SYTOX green staining. % of total cells positive for αSMA were counted in each well and normalized to the average of 11 wells treated with TGF-β1 on the same plate using Dotmatics' Studies Software. The normalized averages (fold change over untreated) of 3 replicate wells for each compound concentration were used to create dose-responses curves and EC50 values were calculated using non-linear regression curve fit in the Dotmatics' Studies Software. For EC50 of >10 μM, the percent inhibition at 10 μM is provided.

[2] = system: primary human mesenchymal stem cells (hMSCs); assay: Induction of chondrogenesis in human mesenchymal stem cells (nodule staining with Rhodamine B / Nile Red); type: cell-based; conditions: for Emax: TGF-β3 (10 ng/mL) as positive control, read-out: Max. Activity as % TGF-β3 activity; for EC50: concentration required to induce 50% levels of chondrogenesis vs TGF-β3, read-out: Conc (nM) of 50% TGF-β3 activity
Procedure: Representative compounds were screened using primary human mesenchymal stem cells (hMSCs) to determine their ability to induce chondrogenesis (process by which cartilage is developed).
Human Mesenchymal Stem Cell Culture: Primary human mesenchymal stem cells (hMSCs) were purchased from Lonza (Walkersville, Md.) and expanded in Mesenchymal Stem Cell Growth Media (Lonza). Cells between passage 3 and 6 were used for the experiments.
Compound Screening: Each compound was dissolved in DMSO as a 10 mM stock and used to prepare compound source plates. For the 96 well assay, serial dilution (1:3, 6-point dose-response curves from 2700 nM to 10 nM) and compound transfer was performed using the ECHO 550 (Labcyte, Sunnyvale, Calif.) into 96-well clear bottom assay plates (Greiner Bio-One) with appropriate DMSO backfill for a final DMSO concentration of 0.03%. hMSCs were plated at 20,000 cells/well in 250 μL/well Incomplete Chondrogenic Induction Medium (Lonza; DMEM, dexamethasone, ascorbate, insulin-transferrin-selenium [ITS supplement], gentamycin-amphotericin [GA-1000], sodium pyruvate, proline and L-glutamine). TGF-β3 (10 ng/mL) was used as a positive control for differentiation while negative control wells were treated with 75 nL DMSO for normalization and calculating EC50 values. For the 384 well assay, serial dilution (1:3, 8-point dose-response curves from 5000 nM to 2.2 nM) and compound transfer was performed using the ECHO 550 (Labcyte, Sunnyvale, Calif.) into 384-well clear bottom assay plates (Greiner Bio-One) with appropriate DMSO backfill for a final DMSO concentration of 0.03%. hMSCs were plated at 8,000 cells/well in 80 μL/well Incomplete Chondrogenic Induction Medium (Lonza; DMEM, dexamethasone, ascorbate, insulin-transferrin-selenium [ITS supplement], gentamycin-amphotericin [GA-1000], sodium pyruvate, proline and L-glutamine). TGF-β3 (10 ng/mL) was used as a positive control for differentiation while negative control wells were treated with 25 nL DMSO for normalization and calculating EC50 values. Cells were incubated at 37° C. and 5% CO2 for 6 days. To image chondrogenic nodules, the cells were fixed using 4% formaldehyde (Electron Microscopy Sciences), and stained with 2 μg/mL Rhodamine B (Sigma-Aldrich) and 20 μM Nile Red (Sigma-Aldrich) [Johnson K., et. al, A Stem Cell-Based Approach to Cartilage Repair, Science, (2012), 336(6082), 717-721]. The nodules imaged (25 images per well for 96 well plates and 9 images per well for 384 well plates at 10× magnification) by excitation at 531 nm and emission at 625 nm and quantified using the CellInsight CX5 (Thermo Scientific). Area of nodules in each well was normalized to the average of 3 DMSO treated wells on the same plate using Excel (Microsoft Inc.). The normalized averages (fold change over DMSO) of 2 or 3 replicate wells for each compound concentration were calculated. Due to solubility limitations of some of the compounds, curve fitting was incomplete leading to inaccurate EC50 determinations.
Using TGF-β3 as a positive control, the concentration of representative compounds required to induce 50% levels of chondrogenesis is reported. In addition, the maximum activity of each compound and the respective dose that each compound reached maximum chondrogenesis activity is reported.

EC50 [2]	SMILES	EC50 [1]	Emax [2]	inhibition at 10 µM [1]
10 nM	O=C(Nc1cncc(-c2ccc3[nH]nc(-c4nc5c(-c6ccc(Cl)s6)cccc5[nH]4)c3n2)c1)C1CCC1 [Compound 1056, N-(5-(3-(4-(5-Chlorothiophen-2-yl)-1H-benzo[d]imidazol-2-yl)-1H-pyrazolo [4,3-b]pyridin-5-yl)pyridin-3-yl)cyclobutanecarboxamide]	2.36 µM	100%	–
–	CN(C)CC(=O)Nc1cncc(-c2ccc3[nH]nc(-c4nc5c(-c6cccc(F)c6)cccc5[nH]4)c3n2)c1 [Compound 969, 2-(Dimethylamino)-N-(5-(3-(4-(3-fluorophenyl)-1H-benzo[d]imidazol-2-yl)-1H-pyrazolo[4,3-b]pyridin-5-yl)pyridin-3-yl)acetamide]	2.07 µM	44%	–
30 nM	c1cncc(-c2ccc3[nH]nc(-c4nc5c(-c6cccnc6)cccc5[nH]4)c3n2)c1 [Compound 88, 5-(Pyridin-3-yl)-3-(4-(pyridin-3-yl)-1H-benzo[d]imidazol-2-yl)-1H-pyrazolo [4,3-b]pyridine]	> 10 µM	58%	0%
300 nM	O=C(Cc1ccccc1)Nc1cncc(-c2ccc3[nH]nc(-c4nc5c(-c6ccncc6)cccc5[nH]4)c3n2)c1 [Compound 122, 2-Phenyl-N-(5-(3-(4-(pyridin-4-yl)-1H-benzo[d]imidazol-2-yl)-1H-pyrazolo [4,3-b]pyridin-5-yl)pyridin-3-yl)acetamide]	4.97 µM	75%	–
–	Clc1ccc(-c2cccc3[nH]c(-c4n[nH]c5ccc(-c6cncc(CN7CCCC7)c6)nc45)nc23)s1 [Compound 1049, 3-(4-(5-Chlorothiophen-2-yl)-1H-benzo[d]imidazol-2-yl)-5-(5-(pyrrolidin-1-ylmethyl)pyridin-3-yl)-1H-pyrazolo[4,3-b]pyridine]	0.733 µM	408%	–
30 nM	Nc1cncc(-c2ccc3[nH]nc(-c4nc5c(-c6ccccc6F)cccc5[nH]4)c3n2)c1 [Compound 59, 5-(3-(4-(2-Fluorophenyl)-1H-benzo[d]imidazol-2-yl)-1H-pyrazolo[4,3-b]pyridin-5-yl)pyridin-3-amine]	1.39 µM	82%	–
–	Fc1cccc(-c2cccc3[nH]c(-c4n[nH]c5ccc(C6=CCNCC6)nc45)nc23)c1 [Compound 506, 3-(4-(3-Fluorophenyl)-1H-benzo[d]imidazol-2-yl)-5-(1,2,3,6-tetrahydropyridin-4-yl)-1H-pyrazolo[4,3-b]pyridine]	1.6 µM	42%	–
1670 nM	CCC(=O)Nc1cncc(-c2ccc3[nH]nc(-c4nc5c(N6CCCCC6)cccc5[nH]4)c3n2)c1 [Compound 169, N-(5-(3-(4-(Piperidin-1-yl)-1H-benzo[d]imidazol-2-yl)-1H-pyrazolo[4,3-b]pyridin-5-yl)pyridin-3-yl)propionamide]	0.158 µM	66%	–
30 nM	CC(C)(C)C(=O)Nc1cncc(-c2ccc3[nH]nc(-c4nc5c(-c6ccc(F)cc6)cccc5[nH]4)c3n2)c1 [Compound 36, N-(5-(3-(4-(4-Fluorophenyl)-1H-benzo[d]imidazol-2-yl)-1H-pyrazolo[4,3-b]pyridin-5-yl)pyridin-3-yl)pivalamide]	> 10 µM	86%	33.6%
–	CN1CCN(c2cccc3[nH]c(-c4n[nH]c5ccc(-c6cncc(N)c6)nc45)nc23)CC1 [Compound 227, 5-(3-(4-(4-Methylpiperazin-1-yl)-1H-benzo[d]imidazol-2-yl)-1H-pyrazolo [4,3-b]pyridin-5-yl)pyridin-3-amine]	> 10 µM	50%	32.1%
–	Fc1ccccc1-c1cccc2[nH]c(-c3n[nH]c4ccc(-c5cncc(CNCC6CCCC6)c5)nc34)nc12 [Compound 81, 1-Cyclopentyl-N-((5-(3-(4-(2-fluorophenyl)-1H-benzo[d]imidazol-2-yl)-1H-pyrazolo[4,3-b]pyridin-5-yl)pyridin-3-yl)methyl)methanamine]	0.627 µM	–	–
–	c1ccc(COc2cncc(-c3ccc4[nH]nc(-c5nc6c(-c7ccncc7)cccc6[nH]5)c4n3)c2)cc1 [Compound 582, 5-(5-(Benzyloxy)pyridin-3-yl)-3-(4-(pyridin-4-yl)-1H-benzo[d]imidazol-2-yl)-1H-pyrazolo[4,3-b]pyridine]	1.42 µM	–	–
–	CS(=O)(=O)NCc1cc(F)cc(-c2cccc3[nH]c(-c4n[nH]c5ccc(-c6cncc(NC(=O)c7ccccc7)c6)nc45)nc23)c1 [Compound 487, N-(5-(3-(4-(3-Fluoro-5-(methylsulfonamidomethyl)phenyl)-1H-benzo[d]imidazol-2-yl)-1H-pyrazolo[4,3-b]pyridin-5-yl)pyridin-3-yl)benzamide]	> 10 µM	–	0%
–	COc1cncc(-c2ccc3[nH]nc(-c4nc5c(-c6ccoc6)cccc5[nH]4)c3n2)c1 [Compound 692, 3-(4-(Furan-3-yl)-1H-benzo[d]imidazol-2-yl)-5-(5-methoxypyridin-3-yl)-1H-pyrazolo[4,3-b]pyridine]	1.41 µM	–	–
–	C1=C(c2ccc3[nH]nc(-c4nc5c(-c6ccc7c(c6)OCO7)cccc5[nH]4)c3n2)CCNC1 [Compound 1109, 3-(4-(Benzo[d][1,3]dioxol-5-yl)-1H-benzo[d]imidazol-2-yl)-5-(1,2,3,6-tetrahydropyridin-4-yl)-1H-pyrazolo[4,3-b]pyridine]	1.59 µM	–	–
